{"source": "patent US9879038B2", "about": "“Salt of tenofovir disoproxil” (JW Pharmaceutical Corporation, priority 2014, dated 2018)", "type_in_all_cases": "physicochemical", "key": {"[1]": {"test": "Evaluation of stability (stressed conditions) depending on generation of related substances, HPLC (USP)", "conditions": "for related substance generated: FIG. 1c", "method": "In order to evaluate stability (stressed conditions), according to the ICH guidelines, tenofovir disoproxil edisylate of the present invention (Example 1: TDE) and tenofovir disoproxil fumarate (Comparative Example 1: TDF) as a control group were used, and analyzed using high-perfoiinance liquid chromatography (HPLC) as set forth in the U.S. Pharmacopeia (USP). The results are shown in Table 1 below (stressed conditions: 60±2° C.).\nThe tenofovir disoproxil hemi-edisylate of the present invention (Example 1: TDE (hemi salt)), serving as a test group, and tenofovir disoproxil mono-edisylate (Comparative Example 2: TDE (mono salt)), serving as a control group, were evaluated for stability for 3 weeks in the same manner as in (1) above."}, "[2]": {"test": "Evaluation of stability depending on changes in pH", "conditions": "deionized water and pH 1.2, 4.0, 6.8 buffers, 30° C., HPLC, FIGS. 2 and 3", "method": "When a drug is orally administered, it is absorbed in vivo through the stomach, duodenum, small intestine, etc. […] In the present invention, stability was measured using deionized water and three different pH buffer solutions (at pH 1.2, 4.0, and 6.8) for release testing. A test method was performed in a manner in which 5 mg of each of the tenofovir disoproxil hemi-edisylate of the present invention and the tenofovir disoproxil fumarate as a control group was accurately weighed, completely dissolved in 1 mL of a mixture of acetonitrile and water (1:19), and then added with 9 mL of each of the above pH buffer solutions. The individual samples thus prepared were placed in a chamber at 30° C. and changes in the amounts thereof over time were quantified using HPLC."}, "[3]": {"test": "Evaluation of saturation solubility", "parameters": "saturation solubility: unit not given here", "conditions": "for solubility: thermodynamic from solid", "method": "The saturation solubility of the tenofovir disoproxil hemi-edisylate of the present invention (Example 1) and the tenofovir disoproxil fumarate salt (Comparative Example 1) as a control group were evaluated."}, "[4]": {"conditions": "stressed conditions 60±2° C., 7 days"}, "[5]": {"conditions": "stressed conditions 60±2° C., 14 days"}, "[6]": {"conditions": "stressed conditions 60±2° C., 21 days"}, "[7]": {"conditions": "stressed conditions 60±2° C., Initial"}}, "note": "Entries after “also recorded” stand apart in the source; their conditions may differ.", "data": [{"compound": "9-[(R)-2-[[bis[[(isopropoxycarbonyl)oxy]methoxy]phosphinyl]methoxy]propyl]adenine hemiedisylate [TDE]", "values": [{"measurement": "stability under stressed conditions (in words)", "setting": "[1]; stressed conditions 60±2° C., 3 weeks, versus control salt, listed as tenofovir disoproxil hemi-edisylate", "result": "very stable under stressed conditions compared to the disoproxil fumarate; also recorded: very stable under stressed conditions compared to the tenofovir disoproxil mono-edisylate"}, {"measurement": "Related substances: Tenofovir disoproxil ethyl ester", "setting": "[1]; [4]", "result": 0.02, "unit": "%"}, {"measurement": "Related substances: Tenofovir isopropyl isoproxil", "setting": "[1]; [4]", "result": 0.04, "unit": "%"}, {"measurement": "Related substances: Tenofovir isoproxil monoester", "setting": "[1]; [4]", "result": 0.27, "unit": "%"}, {"measurement": "Related substances: Tenofovir disoproxil ethyl ester", "setting": "[1]; [5]", "result": 0.01, "unit": "%"}, {"measurement": "Related substances: Tenofovir isopropyl isoproxil", "setting": "[1]; [5]", "result": 0.04, "unit": "%"}, {"measurement": "Related substances: Tenofovir isoproxil monoester", "setting": "[1]; [5]", "result": 0.30, "unit": "%"}, {"measurement": "Related substances: Tenofovir disoproxil ethyl ester", "setting": "[1]; [6]", "result": 0.02, "unit": "%"}, {"measurement": "Related substances: Tenofovir isopropyl isoproxil", "setting": "[1]; [6]", "result": 0.04, "unit": "%"}, {"measurement": "Related substances: Tenofovir isoproxil monoester", "setting": "[1]; [6]", "result": 0.37, "unit": "%"}, {"measurement": "Related substances: Tenofovir disoproxil ethyl ester", "setting": "[1]; [7]", "result": 0.01, "unit": "%"}, {"measurement": "Related substances: Tenofovir isopropyl isoproxil", "setting": "[1]; [7]", "result": 0.04, "unit": "%"}, {"measurement": "Related substances: Tenofovir isoproxil monoester", "setting": "[1]; [7]", "result": 0.26, "unit": "%"}, {"measurement": "related substance generated", "setting": "[1]; stressed conditions, 3rd week", "result": 0.37}, {"measurement": "stability superior to that of tenofovir disoproxil mono-edisylate", "setting": "[1]; stressed conditions, 3rd week, related substance 0.37 vs 5.62", "result": "at least 15 times"}, {"measurement": "stability depending on changes in pH", "setting": "[2]", "result": "stability equal to that of a conventional tenofovir disoproxil fumarate product"}, {"measurement": "saturation solubility", "setting": "[3]; DW (Deionized Water)", "result": 2200}, {"measurement": "saturation solubility", "setting": "[3]; pH 1.2", "result": 2680}, {"measurement": "saturation solubility", "setting": "[3]; pH 4.0", "result": 2280}, {"measurement": "saturation solubility", "setting": "[3]; pH 6.8", "result": 2400}]}, {"compound": "CC(C)OC(=O)OCOP(=O)(CO[C@H](C)Cn1cnc2c(N)ncnc21)OCOC(=O)OC(C)C.O=C(O)/C=C/C(=O)O", "note": "[TDF, 9-[2-(R)-[[bis[[(isopropoxycarbonyl)oxy]methoxy]phosphinoyl]methoxy]propyl]adenine fumaric acid (1:1)]", "values": [{"measurement": "Related substances: Adenine", "setting": "[1]; [4]", "result": 0.01, "unit": "%"}, {"measurement": "Related substances: Tenofovir isoproxil monoester", "setting": "[1]; [4]", "result": 0.79, "unit": "%"}, {"measurement": "Related substances: Unspecified impurity-1", "setting": "[1]; [4]", "result": 0.01, "unit": "%"}, {"measurement": "Related substances: Unspecified impurity-2", "setting": "[1]; [4]", "result": 0.09, "unit": "%"}, {"measurement": "Related substances: Unspecified impurity-3", "setting": "[1]; [4]", "result": 0.03, "unit": "%"}, {"measurement": "Related substances: Unspecified impurity-5", "setting": "[1]; [4]", "result": 0.21, "unit": "%"}, {"measurement": "Related substances: Adenine", "setting": "[1]; [5]", "result": 0.01, "unit": "%"}, {"measurement": "Related substances: Tenofovir isoproxil monoester", "setting": "[1]; [5]", "result": 1.26, "unit": "%"}, {"measurement": "Related substances: Unspecified impurity-1", "setting": "[1]; [5]", "result": 0.05, "unit": "%"}, {"measurement": "Related substances: Unspecified impurity-2", "setting": "[1]; [5]", "result": 0.27, "unit": "%"}, {"measurement": "Related substances: Unspecified impurity-3", "setting": "[1]; [5]", "result": 0.04, "unit": "%"}, {"measurement": "Related substances: Unspecified impurity-4", "setting": "[1]; [5]", "result": 0.04, "unit": "%"}, {"measurement": "Related substances: Unspecified impurity-5", "setting": "[1]; [5]", "result": 0.63, "unit": "%"}, {"measurement": "Related substances: Unspecified impurity-6", "setting": "[1]; [5]", "result": 0.07, "unit": "%"}, {"measurement": "Related substances: Unspecified impurity-7", "setting": "[1]; [5]", "result": 0.42, "unit": "%"}, {"measurement": "Related substances: Adenine", "setting": "[1]; [6]", "result": 0.01, "unit": "%"}, {"measurement": "Related substances: Tenofovir isoproxil monoester", "setting": "[1]; [6]", "result": 1.81, "unit": "%"}, {"measurement": "Related substances: Unspecified impurity-2", "setting": "[1]; [6]", "result": 0.18, "unit": "%"}, {"measurement": "Related substances: Unspecified impurity-3", "setting": "[1]; [6]", "result": 0.03, "unit": "%"}, {"measurement": "Related substances: Unspecified impurity-5", "setting": "[1]; [6]", "result": 0.21, "unit": "%"}, {"measurement": "Related substances: Adenine", "setting": "[1]; [7]", "result": 0.01, "unit": "%"}, {"measurement": "Related substances: Tenofovir isoproxil monoester", "setting": "[1]; [7]", "result": 0.42, "unit": "%"}, {"measurement": "Related substances: Unspecified impurity-2", "setting": "[1]; [7]", "result": 0.03, "unit": "%"}, {"measurement": "Related substances: Unspecified impurity-3", "setting": "[1]; [7]", "result": 0.02, "unit": "%"}, {"measurement": "Related substances: Unspecified impurity-5", "setting": "[1]; [7]", "result": 0.05, "unit": "%"}, {"measurement": "solubility", "setting": "[3]; aqueous buffer, pH 4.0", "result": 13.2, "unit": "mg/mL"}, {"measurement": "solubility", "setting": "[3]; pH 1.2, simulated gastric fluid", "result": 39.2, "unit": "mg/mL"}, {"measurement": "solubility", "setting": "[3]; pH 6.8, aqueous buffer", "result": 9.4, "unit": "mg/mL"}, {"measurement": "solubility", "setting": "[3]; DW (Deionized Water)", "result": 13.5, "unit": "mg/mL"}]}, {"compound": "CC(C)OC(=O)OCOP(=O)(COC(C)Cn1cnc2c(N)ncnc21)OCOC(=O)OC(C)C.O=S(=O)(O)CCS(=O)(=O)O", "note": "(centres unmarked) [tenofovir disoproxil mono-edisylate, Tenofovir disoproxil mono-edisylate]", "values": [{"measurement": "related substance generated", "setting": "[1]; stressed conditions, 3rd week", "result": 5.62}]}]}
